{"source": "paper PMC10776879", "about": "“In vitro screening of topical formulation excipients for epithelial toxicity in cancerous and non-cancerous cell lines” (EXCLI Journal, 2023)", "key": {"[1]": {"conditions": "Table 1, physicochemical information of the excipients, source not given; cited from earlier work"}, "[2]": {"tested_on": "WM164 human melanoma cells", "assay": "MTT cell viability assay", "assay_type": "cell-based", "conditions": "24 h exposure", "protocol": "(§1) Cells were seeded into the 96-well cell culture plates in 100 μl of complete culture medium at the initial density of 2x10^4 (cells/ml). Cells were incubated under 5 % CO2 at 37 °C for 24 hours for adhering to the wells and medium was then replaced with 100 μl of fresh medium containing excipient solution at the required final concentration. Each concentration was tested in minimum of 5 replicates and control cells were exposed to the culture medium only.\n(§2) After cell incubation for 24 h, the excipient-containing medium was removed, and 100 μl of MTT in PBS (5 mg/ml) diluted 1:10 in medium was then added in the dark. Plates were further incubated for 2-3 h, after which time the medium was removed and the purple formazan product was dissolved by adding 200 μl of DMSO to each well. Plates were then placed in a shaker for 5 min at room temperature and the absorbance of the resulting solutions was measured at 570 nm using a microplate reader (Multiskan™ FC Microplate Photometer). The effect of each treatment was calculated as the percentage of tetrazolium salt reduction by viable cells against the negative control (cells treated with culture medium only).\n(§3) To assess the excipients' cytotoxicity, the dose-response effect of each excipient was measured against the cell lines. The cytotoxicity value for each concentration of the excipients was expressed as percentage of viability against the untreated control wells (the optical density of untreated cells was set at 100 % viability) to construct dose-response curves.\n(§4) All IC50 values were expressed as µg/ml. The percentage viability was calculated as follows: […]"}, "[3]": {"tested_on": "HaCaT human keratinocytes", "assay": "MTT cell viability assay", "assay_type": "cell-based", "conditions": "24 h exposure", "protocol": "as §1, §2, §3, §4"}, "D24 human melanoma cells [4]": {"tested_on": "D24 human melanoma cells", "assay": "MTT cell viability assay", "assay_type": "cell-based", "conditions": "24 h exposure", "protocol": "as §1, §2, §3, §4"}, "[5]": {"tested_on": "WM1366 human melanoma cells", "assay": "MTT cell viability assay", "assay_type": "cell-based", "conditions": "24 h exposure", "protocol": "as §1, §2, §3, §4"}, "[6]": {"tested_on": "human leukemic cells (CCRF)", "parameters": "method as in Duncan et al., 1994[25]", "conditions": "ref Duncan et al., 1994[25]; cited from earlier work"}, "[7]": {"tested_on": "primary skin fibroblasts (FB)", "assay": "MTT cell viability assay", "assay_type": "cell-based, human", "conditions": "24 h exposure", "protocol": "as §1, §2, §3, §4"}, "[8]": {"tested_on": "primary skin fibroblasts (FB)", "assay": "Crystal violet (CV) cell viability assay", "assay_type": "cell-based, human", "conditions": "24 h exposure", "protocol": "(§5) Cells were seeded into the 96-well cell culture plates in 100 μl of complete culture medium at the initial density of 2x10^4 (cells/ml). Cells were incubated under 5 % CO2 at 37 °C for 24 hours for adhering to the wells and medium was then replaced with 100 μl of fresh medium containing excipient solution at the required final concentration. Each concentration was tested in minimum of 5 replicates and control cells were exposed to the culture medium only. Fixed cells were stained with crystal violet dye solution to screen cell viability under treatment conditions. Cells are fixed by 4 % (v/v) paraformaldehyde in PBS for 10 minutes. Crystal violet assay of 0.05 % (v/v) is prepared by 1:4 dilution of the crystal violet stock solution (v/v) in 4 % (v/v) paraformaldehyde. The fixed cells were washed twice with PBS and covered with 250 µl crystal violet working solution. The plates were placed on a bench rocker with medium frequency (20 oscillations per minute) at room temperature for 20 minutes. The plates were emptied and washed under indirect stream of tap water for three times and inverted on filter paper. The plates were taped gently on the paper to remove any remaining liquid and air dried with no lid for minimum of 2 hr at room temperature. After the plates were photographed, blue dye was dissolved in DMSO and the optical density of each well was measured at 570 nm (OD570) with a plate reader (Multiskan™ FC Microplate Photometer). The effect of each treatment was calculated as the percentage of crystal viable staining of surviving attached cells, against the negative control (cells treated with culture medium only). To assess the excipients' cytotoxicity, the dose-response effect of each excipient was measured against the cell lines. The cytotoxicity value for each concentration of the excipients was expressed as percentage of viability against the untreated control wells (the optical density of untreated cells was set at 100 % viability) to construct dose-response curves. […] All IC50 values were expressed as µg/ml. The percentage viability was calculated as follows: […]"}, "[9]": {"tested_on": "human cell lines (WM164, WM1366, D24, HaCaT, FB)", "assay": "MTT and CV cytotoxicity, statements over all tested cell lines", "assay_type": "cell-based", "protocol": "as §1, §2\nFixed cells were stained with crystal violet dye solution to screen cell viability under treatment conditions. Cells are fixed by 4 % (v/v) paraformaldehyde in PBS for 10 minutes. Crystal violet assay of 0.05 % (v/v) is prepared by 1:4 dilution of the crystal violet stock solution (v/v) in 4 % (v/v) paraformaldehyde. The fixed cells were washed twice with PBS and covered with 250 µl crystal violet working solution. The plates were placed on a bench rocker with medium frequency (20 oscillations per minute) at room temperature for 20 minutes. The plates were emptied and washed under indirect stream of tap water for three times and inverted on filter paper. The plates were taped gently on the paper to remove any remaining liquid and air dried with no lid for minimum of 2 hr at room temperature. After the plates were photographed, blue dye was dissolved in DMSO and the optical density of each well was measured at 570 nm (OD570) with a plate reader (Multiskan™ FC Microplate Photometer). The effect of each treatment was calculated as the percentage of crystal viable staining of surviving attached cells, against the negative control (cells treated with culture medium only).\nas §3\nThe cytotoxicity of the excipients was expressed in terms of an IC50 values (concentration causing 50 % death of the cell population) (Goldberg and Frazier, 1989[37]). […] All IC50 values were expressed as µg/ml. The percentage viability was calculated as follows: […]"}, "[10]": {"tested_on": "WM164 human melanoma cells", "assay": "Crystal violet (CV) cell viability assay", "assay_type": "cell-based", "conditions": "24 h exposure", "protocol": "as §5"}, "[11]": {"tested_on": "HaCaT human keratinocytes", "assay": "Crystal violet (CV) cell viability assay", "assay_type": "cell-based", "conditions": "24 h exposure", "protocol": "as §5"}, "D24 human melanoma cells [12]": {"tested_on": "D24 human melanoma cells", "assay": "Crystal violet (CV) cell viability assay", "assay_type": "cell-based", "conditions": "24 h exposure", "protocol": "as §5"}, "[13]": {"tested_on": "WM1366 human melanoma cells", "assay": "Crystal violet (CV) cell viability assay", "assay_type": "cell-based", "conditions": "24 h exposure", "protocol": "as §5"}}}
{"substance": "Triton X-100 [reference compound]", "values": [{"measurement": "HLB", "setting": "[1]", "value": 13.5}, {"measurement": "IC50 (μg/ml) [Mean, Range] WM164, MTT", "setting": "[2]", "value": "0.0042 (0.002 to 0.01) μg/ml"}, {"measurement": "IC50 (μg/ml) [Mean, Range] HaCaT, MTT", "setting": "[3]", "value": "0.0417 (0.04 to 0.043) μg/ml"}, {"measurement": "IC50 (μg/ml) [Mean, Range] D24, MTT", "setting": "D24 human melanoma cells [4]", "value": "0.0429 (0.04 to 0.05) μg/ml"}, {"measurement": "IC50 (μg/ml) [Mean, Range] WM1366, MTT", "setting": "[5]", "value": 0.083, "unit": "µg/mL"}, {"measurement": "IC50, MTT assay", "setting": "[6]", "value": 1, "unit": "µg/mL"}, {"measurement": "IC50 (μg/ml) [Mean, Range] FB, MTT", "setting": "[7]", "value": "0.1034 (0.08 to 0.16) μg/ml"}, {"measurement": "IC50 (μg/ml) [Mean, Range] FB, CV", "setting": "[8]", "value": "0.094 (0.08 to 0.13) μg/ml"}, {"measurement": "Concentration causing significant inhibition of cell growth", "setting": "[9]; all cell lines", "value": 0.004, "unit": "µg/mL"}, {"measurement": "IC50", "setting": "[9]; over the tested cell lines, this study", "value": "< 0.08", "unit": "µg/mL"}, {"measurement": "Irritancy ranking", "setting": "[9]; rank by MTT and CV IC50 over all cell lines, 1 = most cytotoxic", "value": 1}, {"measurement": "IC50 (μg/ml) [Mean, Range] WM164, CV", "setting": "[10]", "value": 0.0265, "unit": "µg/mL"}, {"measurement": "IC50 (μg/ml) [Mean, Range] HaCaT, CV", "setting": "[11]", "value": "0.044 (0.042 to 0.047) μg/ml"}, {"measurement": "IC50 (μg/ml) [Mean, Range] D24, CV", "setting": "D24 human melanoma cells [12]", "value": "0.043 (0.04 to 0.045) μg/ml"}, {"measurement": "IC50 (μg/ml) [Mean, Range] WM1366, CV", "setting": "[13]", "value": 0.089, "unit": "µg/mL"}]}
